The test system of one data set is dogs. Kind of data set: 28 days toxicity study in dogs (GLP), oral TTA. It is filed as in vivo, dog. From the text:
A 28 days toxicity study in dogs according to GLP guide-lines has been performed by Corning Hazleton (Europe), England. […] Some lipid related parameters were lowered in the animals given high dosages. This is consistent with the pharmacological activity of TTA.

The subject of a further data set is Salmonella typhimurium. As to the kind of experiment: Test for mutagenic activity in Salmonella typhimurium strains. In kind it is cell-based. Particulars: 3-1000 mg/plate (TTA) 2-5000 mg/plate (TSA). The source says:
(§1) Tests for mutagenic activity have been performed by Covance Laboratories Limited, England. […] Furthermore, TTA was not mutagenic when tested in mouse lymphoma cells […] L5178Y.

Data set [1] relates to mouse lymphoma cells, L5178Y. Kind of data set: Mutagenicity test in mouse lymphoma cells L5178Y. The settings on record: 2.5-50 mg/ml. In kind it is cell-based.
From the text: as §1

The test system of data set [2] is chinese hamster ovary cells. As to the kind of experiment: Chromosomal aberrations in cultured chinese hamster ovary cells. In kind it is cell-based. Particulars: doses tested 12-140 mg/ml.
The next data set deals with Wistar rats. As to the kind of experiment: Lipid lowering effect in normal Wistar rats (Example 4). It is filed as in vivo, rat. The settings on record: gavage once daily for 7 days, dose 150 mg/day/kg body weight.
The test system of data set [3] is young obese Zucker (fa/fa) rats. As to the kind of experiment: Body weight gain, liver and adipose tissue weights in young obese Zucker rats (Example 9). In kind it is in vivo, rat. The settings on record: 5 week-old male obese Zucker (fa/fa) rats, TTA 300/kg/day in 0.5% CMC, 11 days, means ± SD. The procedure:
The obese Zucker (fa/fa) rats used in this study were bred at the U 465 INSERM animal facility from pairs originally provided by the Harriet G. Bird Laboratory (Stow, Mass., USA). Unless otherwise stated, the animals were maintained under a constant light-dark cycle (light from 7:00 a.m. to 7:00 p.m.) at 21±1° C. and were given free access to food and water. Three rats were housed per cage. Weight gains were recorded daily.
5 week-old male obese Zucker (fa/fa) rats fed with TTA, 300/kg/day suspended in 0.5% CMC. Control animals received CMC only. Following 11 days of treatment, rats were killed by cervical dislocation, liver and epididymal adipose tissue pads were dissected out and weighed. Data are means±SD of 6 animals in the control- and 6 animals in the experimental group.

Another data set has as its system male dogs. Kind of data set: Body weights of male dogs treated for 4 weeks (Example 10). In kind it is in vivo, dog. Particulars: 500 mg/kg/day orally in capsules. On the procedure:
3 male dogs (4-6 months old) were housed singly during the days. Each animal was offered 400 g of SQC Diet A each morning after dosing and any residue diet was removed in the afternoon. The drug was administered orally in capsules once daily for 28 days.

Data set [4] deals with Wistar Charles River rats. Kind of data set: High fat diet induced hyperinsulinemia (Example 11). The settings on record: HF diet supplemented with TTA, 21 days, overnight fast (FIG. 3). It is filed as in vivo, rat. On the procedure:
(§2) Glucose (GLU, Boehringer Mannheim, Germany), free fatty acids (NEFA, C ACS-ACOD kit; Wako Chemicals, Dalton, USA) and b-hydroxybutyrate (310-A kit; Sigma Diagnostics Inc., St. Louis, USA) concentrations were measured using enzymatic methods. Insulin concentrations were determined with radioimmunoassay by (CIS bio International, Gif sur Yvette, France) using rat insulin as standard in the Zucker rats. In the Wistar Charles River rats, plasma glucose concentrations were measured with the aid of Beckman Glucose Analyzer (Fullerton, Calif., USA). Plasma insulin levels were measured using a RIA kit from Linco Research Inc. (St. Charles, Mo., USA). Phospholipids were measured by the enzymatic method of bioMérieux, Marcy-l {grave over ( )}Etoile, France, Triacylglycerol by the Technicon Method no. SA4-0324L90, USA and Cholesterol by the Technicon Method no. SA4-0305L90, USA.
Rats weighing 280-360 g were divided into 3 groups (n=6) and fed with three different diets: standard rat chow, high fat diet (HF) and HF supplemented with TTA. After 21 days on their respective diets, blood was collected after an overnight fast from the tail vein. The data are shown as mean±SEM. Results were analysed by ANOVA and different letters denote statistical significance (p<0.05).

Data set [5] concerns 5 weeks old Zucker (fa/fa) rats. Kind of data set: Blood insulin and glucose in 5 weeks old Zucker (fa/fa) rats (Example 13). It is filed as in vivo, rat. Particulars: 300 mg/kg/day oral gavage, 11 days (FIG. 5). On the procedure: as §2
The rats were administered TTA at a dose of 300 mg/kg/day suspended in 0.5% CMC (n=6) by oral gavage. Following 11 days of treatment, rats were killed by cervical dislocation. Blood was collected and the levels of insulin and glucose measured as indicated in the method section. Data are means±S.D.

In the next data set the test system is male Wistar rats. Kind of data set: Hepatic levels of triacylglycerol in rats fed fatty acid analogues (Example 17). In kind it is in vivo, rat. Particulars: TTA 150 mg/kg/day for 6 days, no prefeeding. From the text:
Even an increased hepatic level of triacylglycerol may be relieved by TTA. Feeding rats with an inhibitor of fatty acid oxidation will increase the level of hepatic triacylglycerol resulting in fatty liver. Tetradecyl-4-thia propionic acid (TTP) is a fatty acid analogue with a sulphur atom in the 4 position. This analogue inhibits the β-oxidation of fatty acids due to the formation of a mitochondrial inhibitor. Feeding rats with this analogue results in the formation of fatty. However, if the rats are fed with a combination of TTA and TTP, the formation of fatty liver is avoided (Table 8). This provides evidence that TTA may be used for the treatment of conditions with an increased hepatic level of triacylglycerol. Male Wistar rats had free access to water and rat maintenance chow. They were fed palmitic acid or fatty acid analogues suspended in 0.5% CMC for 6 days. In some experiments TTA or TTP were fed for 3 days before feeding both for 6 days. At the end of the experiment the rats were fasted overnight, killed, the liver removed and homogenized. Triacylglycerol was measured in the homogenate.

For another data set, the system named is obese Zucker fa/fa rats. As to the kind of experiment: Fatty acid composition in liver and plasma of obese Zucker fa/fa rats (Example 19). It is filed as in vivo, rat. The settings on record: 300 mg/day/kg gavage once daily for 10 days, delta-9-desaturated product of TTA. On the procedure:
Male obese Zucker fa/fa rats, weighing 100 g at the start of the experiment, were housed in pairs in metal wire cages in a room maintained at 12 h light-dark cycles and a constant temperature of 20±3° C. The animals were acclimatised for at least one week under these conditions before the start of the experiment.
TTA and palmitic acid (control), was suspended in 0.5% (w/v) carboxymethyl cellulose (CMC) and administered at a dose of 300 mg/day/kg body weight, by gastric intubation (gavage) once daily for 10 days. The rats were fasted for 2 hours before termination of the experiment. Blood and organs were collected. Total lipids were extracted from liver and plasma. The lipids were evaporated, saponified and esterified prior to separation using a Carlo Erba 2900 gas-chromatograph.

This is an account of results in patent US6365628B1 (Thia Medica AS, priority 1998, dated 2002).

As to Tetradecylthioacetic acid [TTA], the “Effect on body weight” value with dogs (500 mg/kg/day) was “body weight loss”. For the same substance, the Evidence of toxicity entry in the data set with dogs (dose levels of 50 or 500 mg/day/kg) is “no evidence of toxicity”. The “Tolerability of oral administration” value with dogs (dose levels up to 500 mg/kg/day) is “generally well tolerated”. The “Induction of mutations in strains of Salmonella typhimurium” value in the data set on Salmonella typhimurium is recorded as “did not induce mutations”. Also, the “Mutagenicity in mouse lymphoma cells L5178Y” value in data set [1] is listed as “not mutagenic”. The “Chromosomal aberrations in cultured chinese hamster ovary cells” value in data set [2] is on record as “no aberrations were induced”. For the same substance, the “Plasma lipids (% reduction of control) cholesterol” value in the data set with Wistar rats is 30 % reduction of control. The “Plasma lipids (% reduction of control) triglycerides” value in the data set on Wistar rats is recorded as 45 % reduction of control. The “Body weight gain” value in data set [3] is listed as 6.23 ± 0.28 g/day. Also, the “Epididymal adipose tissue/body weight (%)” value in data set [3] stood at 0.78 ± 0.02%. In addition, the “Mean body weight (kg)” value is 9,22 ± 1,77 kg in the data set with male dogs (week 0); 8,95 kg in the data set with male dogs (week 1); 8,75 ± 1,58 kg with male dogs (week 2); 8,58 kg in the data set on male dogs (week 3); 8,50 ± 1,74 kg in the data set on male dogs (week 4). The “High fat diet-induced hyperinsulinemia” value in data set [4] was “prevents high fat diet-induced hyperinsulinemia”. The “Reduction of blood concentration of glucose” value in data set [5] is listed as around 15%. In addition, the “Reduction of blood insulin concentration” value in [5] is around 40%. Also, the “Hepatic triacylglycerol TG (μmol/g)” value in the data set with male Wistar rats is recorded as 7,7 ± 2,9 μmol/g. Moreover, the “Monounsaturated tetradecylthioacetic acid, fatty acid composition in liver (% of total)” value with obese Zucker fa/fa rats is recorded as 1.1 ± 0.2 % of total. For the same substance, the “Monounsaturated tetradecylthioacetic acid, fatty acid composition in plasma (% of total)” value in the data set with obese Zucker fa/fa rats was 0.2 ± 0.1 % of total.
